In one assay the test system is Bacillus cereus. Kind of assay: Test Example 2: preventing formation of bacterial CGC in vitro (K-B method). In kind it is cell-based. Here is the method: (§1) E. coli (No. 33310, purchased from Chengdu Institute of Biological Products, the Ministry of Public Health) was used in the tests. Grid design was performed by using antibiotic with different concentrations and N-acetyl-D-glucosamine having an amount of from 10 mg to 300 mg. Streak plates were conducted separately, and K-B method was employed for drugs. Colonies at marginal part of drug inhibition zone were picked and were observed under microscope. If cell length was more than 50 μm and cell number was more than 5 in each visual field, it was deemed as CGC positive and was marked with “+”; while if cell length was not greater than 50 μm and cell number was within the range from 0 to 4 in each visual field, it was deemed as CGC negative and was marked with “−”. At this time, the ratio of two substances was called “effective ratio”.
(§2) Effects tests of compound preparation comprising N-acetyl-D-glucosamine and antibiotics for preventing the formation of bacterial CGC in vitro.
(§3) The tests were carried out in vitro, wherein gram-negative amphimicrodes, gram-negative anaerobes and gram-positive aerobes were separately coated on streak plates, test drugs and control drugs were separately dissolved with same volume of sterile water for injection, 10 μl of each drug was used for preparing drug-sensitive paper, K-B method was employed in the tests of drugs, and the inhibition situations of CGC formation were observed.

The test system of a further assay is Bacillus proteus. The assay is described as above. In kind it is cell-based. Here is the method:
as §1, §2, §3

The test system of the next assay is Bacteroides fragilis. The assay is described as above. Type of assay: cell-based. As for the experimental part: as §1, §2, §3
The next assay concerns Citro Bacter. The assay is described as above. In kind it is cell-based. Here is the method:
as §1, §2, §3

In a further assay the test system is Diphtheroid bacillus. The assay is described as above. In kind it is cell-based. Here is the method: as §1, §2, §3
Another assay relates to E. coli. The description is as above. In kind it is cell-based. Here is the method: as §1, §2, §3
The test system of the next assay is Klebsiella. The assay is described as above. In kind it is cell-based. As for the experimental part:
as §1, §2, §3

The next assay relates to Listeria. Described as above. Type of assay: cell-based. As for the experimental part:
as §1, §2, §3

In the next assay the test system is Nucleic Acid Bacter. Described as above. Type of assay: cell-based. As for the experimental part: as §1, §2, §3
Assay [1] deals with rats infected and not infected by Bacillus typhi murium. In kind it is in vivo, Wistar rats. The conditions noted are these: rats infected or not by Bacillus typhi murium; N-acetyl-D-glucosamine (100 mg)+spiramycin (900 mg) vs only spiramycin; consecutive week; 15 rats per group.
The test system of assay [2] is irritable bowel syndrome (IBS) caused by bacterial CGC. Kind of assay: Test Example 5: preventing irritable bowel syndrome (IBS) caused by bacterial CGC. Type of assay: in vivo, rats. An excerpt: On this basis, the rats were subjected to stimulations such as electric stimulation, intragastric administration with fructus zanthoxyli water, cold, constraint etc. in order to induce IBS, and the incidence rates of IBS of two groups were observed.

Setting [3] is: compound preparation 100 mg N-acetyl-D-glucosamine + 900 mg spiramycin, control 900 mg spiramycin.
Setting [4] is: compound preparation 100 mg N-acetyl-D-glucosamine + 1500 mg ampicillin-sulbactam, control drug was ampicillin-sulbactam.

Here are results for one substance from US20070191291A1, “Compound antibacterial drugs comprising n-acetyl-d-glucosamine” (priority 2003, published 2007).

For the substance spiramycin, the CGC formation result with Bacillus cereus (setting [3]) was “+ (If cell length was more than 50 μm and cell number was more than 5 in each visual field, it was deemed as CGC positive and was marked with “+”)”; with Bacillus cereus (setting [4]) it was “+ (If cell length was more than 50 μm and cell number was more than 5 in each visual field, it was deemed as CGC positive and was marked with “+”)”; with Bacillus proteus (setting [3]) it was “+ (If cell length was more than 50 μm and cell number was more than 5 in each visual field, it was deemed as CGC positive and was marked with “+”)”; in the assay on Bacillus proteus (setting [4]), “+ (If cell length was more than 50 μm and cell number was more than 5 in each visual field, it was deemed as CGC positive and was marked with “+”)”; in the assay on Bacteroides fragilis (setting [3]), “+ (If cell length was more than 50 μm and cell number was more than 5 in each visual field, it was deemed as CGC positive and was marked with “+”)”; in the assay on Bacteroides fragilis (setting [4]), “+ (If cell length was more than 50 μm and cell number was more than 5 in each visual field, it was deemed as CGC positive and was marked with “+”)”. The CGC formation entry is “+ (If cell length was more than 50 μm and cell number was more than 5 in each visual field, it was deemed as CGC positive and was marked with “+”)” in the assay on Citro Bacter (setting [3]); “+ (If cell length was more than 50 μm and cell number was more than 5 in each visual field, it was deemed as CGC positive and was marked with “+”)” in the assay on Citro Bacter (setting [4]); “+ (If cell length was more than 50 μm and cell number was more than 5 in each visual field, it was deemed as CGC positive and was marked with “+”)” with Diphtheroid bacillus (setting [3]); “+ (If cell length was more than 50 μm and cell number was more than 5 in each visual field, it was deemed as CGC positive and was marked with “+”)” in the assay on Diphtheroid bacillus (setting [4]); “+ (If cell length was more than 50 μm and cell number was more than 5 in each visual field, it was deemed as CGC positive and was marked with “+”)” with E. coli (setting [3]); “+ (If cell length was more than 50 μm and cell number was more than 5 in each visual field, it was deemed as CGC positive and was marked with “+”)” in the assay on E. coli (setting [4]). Also, the CGC formation result with Klebsiella (setting [3]) was “+ (If cell length was more than 50 μm and cell number was more than 5 in each visual field, it was deemed as CGC positive and was marked with “+”)”; with Klebsiella (setting [4]), “+ (If cell length was more than 50 μm and cell number was more than 5 in each visual field, it was deemed as CGC positive and was marked with “+”)”; in the assay on Listeria (setting [3]) it was “+ (If cell length was more than 50 μm and cell number was more than 5 in each visual field, it was deemed as CGC positive and was marked with “+”)”; with Listeria (setting [4]), “+ (If cell length was more than 50 μm and cell number was more than 5 in each visual field, it was deemed as CGC positive and was marked with “+”)”; with Nucleic Acid Bacter (setting [3]), “+ (If cell length was more than 50 μm and cell number was more than 5 in each visual field, it was deemed as CGC positive and was marked with “+”)”; in the assay on Nucleic Acid Bacter (setting [4]), “+ (If cell length was more than 50 μm and cell number was more than 5 in each visual field, it was deemed as CGC positive and was marked with “+”)”. The “positive rates of stool CGC and intestinal mucosa CGC” value in assay [1] is listed as 100%. In addition, the “incidence rate of IBS” value stood at 33% in [2] (first of three values given respectively: electric stimulation); 33% in [2] (second of three values given respectively: intragastric administration with fructus zanthoxyli water); 33% in assay [2] (third of three values given respectively: cold, constraint etc.). The “CGCs in the rat stools after one week of drug withdrawal” value in [2] (rats, effective dosage for consecutive 10 days, 30 rats per group) is listed as “still present”. The “CGCs in the stools of the rats” value in [2] (rats, effective dosage for consecutive 10 days, stools observed during administration and within 1 week after drug withdrawal, 30 rats per group) is given as “a large amount of CGCs appeared”.
